Each structure is given as a SMILES string.

Series [1] has as its system NG108-15 cells. As to the kind of experiment: Determination of the intracellular Ca2+ concentration (fura2-AM fluorescence ratio). Type of series: cell-based. The text has this:
The present invention will be explained more specifically by referring to the following examples. However, the scope of the present invention is not limited to these examples. The test procedure in the examples was according to the method of Hare et al. (Hare, M. F., et. al., JPET, 266, pp.1626-1635, 1993) unless otherwise indicated. In the examples, “Nefiracetam” means 2-oxo-1-pyrrolidinylacetic acid 2,6-dimethylanilide, and “Ro5-4864” means the mitochondrias benzodiazepine receptor agonist, (7-chloro-5-(4-chlorophenyl)-1,3-dihydro-1-methyl-2H-1,4-benzodiazepin-2-one: TIPS, December, pp. 506-511, 1986).
Changes in the intracellular Ca^2+ concentration caused by Ro5-4864 was studied. Cultured cells (NG108-15 cells: nerve cell x neuroglia cell hybrid) were cultured in DMEM culture medium, and further cultured in Flexiperm Disc (Heraeus Biotechnology) provided with a cover glass and used in the following described below. The cultured NG 108-15 cells were added with Ro5-4864 at final concentration of […]. A fluorescent remedicament, fura2-AM (1-(6-amino-2-(5-carboxy-2-oxazoly-5-benzofuranyloxy)-2-(2-amino-5-methylphenoxy)-ethane-N,N,N′,N′-teraacetic acid, pentaacetoxymethyl ester, Dojindo Laboratories) was dissolved in DMSO (Dimethylsulfoxide, Nakarai Chemical) to prepare a 1 mM solution, and this solution was diluted 200 times with HBS (Herpes-saline solution, composition: NaCl; 130 mM; KCl: 5.4 mM; CaCl2: 1.8 mM; MgSO4: 0.8 mM; D-glucose: 20 mM; Na^+-HEPES; 20 mM, pH 7.3) to prepare a fluorescent reagent solution (final concentration of fra2-AM: 5 μM).
For the determination of intracellular Ca^2+ concentrations, the culture medium was removed from the Petri dish where the NG108-15 cells were cultured, and the dish was washed twice with HBS. The cultured cells were added with the 5 μM fura2-AM solution prepared above, put in a carbon dioxide gas incubator for 30 minutes, and then washed with HBS five times to remove the added fura2-AM solution. Finally, 1 ml of HBS was added to the Flexiperm, and the intracellular Ca^2+ concentration was measured by ARGUS-50/CA (Hamamatsu Photonics). According to this measurement, the fluorescence of Ca^2+-bound type fura-2 emitted at an excitation wavelength of 340 nm and the fluorescence of Ca^2+-free type fura-2 emitted at an excitation wavelength of 380 nm were measured as a pair at a constant interval for the fura-2 loaded cultured cells, and their relative ratio (ratio of fluorescence intensity) was used to analyze the intracellular Ca^2+ dynamics (concentration). An increase in the 340 nm excited fluorescence due to the binding of intracellular calcium ions to the fura2-AM, and a decrease in the 380 nm excited fluorescence were recorded by imaging and the ratio of fluorescence intensity between the fluorescence images was obtained.

Series [2] relates to NG108-15 cells. As to the kind of experiment: Determination of the mitochondrial membrane potential (Rhodamine 123 fluorescence). Format: cell-based.
The conditions of series [3]: male mouse, p.o.; cited from earlier work.

As for `CN1C(=O)CN=C(c2ccc(Cl)cc2)c2cc(Cl)ccc21` [Ro5-4864, 7-chloro-5-(4-chlorophenyl)-1,3-dihydro-1-methyl-2H-1,4-benzodiazepin-2-one], the “change in intracellular Ca2+ concentration” value is reported as “elevation” with NG108-15 cells [1] (Ro5-4864 25 μM alone, FIG. 5, first peak); “elevation” in the series with NG108-15 cells [1] (Ro5-4864 50 μM alone, FIG. 7, first peak); “markedly elevated” with NG108-15 cells [1] (Ro5-4864 50 μM applied after bradykinin and caffeine treatment (endoplasmic reticulum Ca2+ depleted), FIG. 3); “sharply increases” in the series with NG108-15 cells [1] (Ro5-4864 alone, FIG. 1). For the same molecule, the “change in mitochondrial membrane potential” value was “remarkably decreased” in the series on NG108-15 cells [2] (Ro5-4864 50 μM alone, FIG. 2); “remarkable decrease” with NG108-15 cells [2] (Ro5-4864 50 μM applied after caffeine and bradykinin, FIG. 4).
Regarding `Cc1cccc(C)c1NC(=O)CN1CCCC1=O` [Nefiracetam, 2-oxo-1-pyrrolidinylacetic acid 2,6-dimethylanilide], in the series with NG108-15 cells [1] (Nefiracetam 50 μM alone, after washing, FIG. 5), the “change in intracellular Ca2+ concentration” value is recorded as “no change”. In the series with NG108-15 cells [1] (Ro5-4864 25 μM in the presence of Nefiracetam 50 μM, FIG. 5), the “change in intracellular Ca2+ concentration on addition of Ro5-4864” value is on record as “almost no change”. The “change in mitochondrial membrane potential” value with NG108-15 cells [2] (Nefiracetam 50 μM alone, FIG. 6) is given as “no change”. Further, the “change in mitochondrial membrane potential on addition of Ro5-4864” value with NG108-15 cells [2] (Ro5-4864 25 μM in the presence of Nefiracetam 50 μM, FIG. 6) was “almost no change”. Moreover, the “depolarizing effect of Ro5-4864 on mitochondrial membranes” value in the series on NG108-15 cells [2] (Ro5-4864 50 μM in the presence of Nefiracetam, FIG. 6) is “weak”. In addition, the acute toxicity in series [3] is listed as 2,005 mg/kg.
Regarding `CN(C(=O)Cn1c(=O)n2c(Br)c(-c3cccc(Cl)c3)nc2c2ccccc21)c1ccccc1` [NCS-1044-90, 2-(3-Chlorophenyl)-3-bromo-6-(N-methyl-N-phenylacetamido)-5-oxo-5,6-dihydroimidazo[1,2-c]quinazoline], in the series with NG108-15 cells [1] (Ro5-4864 100 μM applied to cells treated beforehand with NCS-1044-90 10 μM, FIG. 9), the “change in intracellular Ca2+ concentration on addition of Ro5-4864” value is “only a very small elevation”. Besides, the “change in intracellular mitochondrial membrane potential” value with NG108-15 cells [2] (NCS-1044-90 10 μM alone, FIG. 10) is “No change”. The “change in intracellular mitochondrial membrane potential on addition of Ro5-4864” value with NG108-15 cells [2] (Ro5-4864 50 μM added to cells treated with NCS-1044-90 10 μM, FIG. 10) is “only a very small elevation”. The “change in intracellular mitochondrial membrane potential on further addition of Ro5-4864” value in the series on NG108-15 cells [2] (further treatment with Ro5-4864 100 μM, cells treated with NCS-1044-90 10 μM, FIG. 10) is “slight and gentle elevation”.
Consider `Cn1c(=O)c2c(ncn2C)n(C)c1=O` [caffeine, reference compound], for which the “change in mitochondrial membrane potential” value in the series with NG108-15 cells [2] (caffeine 10 μM and bradykinin 1 μM applied, FIG. 4) was “no alteration”.
